Tests used:
[1] = tested on: phospho-GSK-3β in CD34+ cells from UCB; assay: UCB mononuclear cells treated with PGE2; phospho-GSK-3β expression in CD34+ cells by high-resolution flow cytometry; type: cell-based; conditions: UCB treated with reagent vehicle (DMSO) versus PGE2
Description: Using our high-resolution flow cytometric technology, we have studied HSC for measures of potency. Our conception has been that expression levels of molecules shown to be important for hematopoiesis in experimental studies may have utility in assessing the potency of HSC in terms of engraftment after transplantation.
In order to assess molecular expression level correlates of potency in UCB HSC, we treated UCB mononuclear cells with PGE2 and assessed the expression of […].
This is consistent with our previous finding that phospho-GSK-3β is a potency biomarker.

[2] = tested on: UCB HSC; conditions: pulse incubation of UCB cells; clinical trial; cited from earlier work

Structure (SMILES): CCCCC[C@H](O)/C=C/[C@H]1[C@H](O)CC(=O)[C@@H]1C/C=C\CCCC(=O)O [PGE2, Prostaglandin E2]
- expression of phospho-GSK-3β in CD34+ cells [1]: able to detect differences in expression of phospho-GSK-3β
- potency of the HSC in terms of engraftment [2]: enhances the potency of the HSC in terms of engraftment

Reference: US20160231319A1, “METHOD OF ENHANCING HEMATOPOIETIC CELL TRANSPLANTATION” (Verve, Ltd., priority 2014, published 2016)
